In patent US11051515B2, “3-acyl-benzamides and their use as herbicides” (Bayer Aktiengesellschaft, priority 2017, dated 2021):

Columns and labels:
[1] = test system: STEME; test: Pre-emergence action against STEME; format: in vivo, Stellaria media; settings: Dosage 320 g/ha, pre-emergence
Outline: (§1)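 Seeds sown in sandy loam in wood-fiber pots and covered with soil. Greenhouse growth; visual damage scored after 3 weeks versus untreated controls (100% = dead, 0% = like control).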

[2] = test system: ABUTH; test: Post-emergence action against ABUTH; format: in vivo, Abutilon theophrasti; settings: post-emergence, dosage 80 g/ha, visual assessment about 3 weeks after treatment vs untreated controls
Outline: (§2)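 Weeds grown in sandy loam in greenhouse, treated at one-leaf stage (2–3 weeks after sowing) with WP or EC formulations sprayed as aqueous suspension/emulsion at 600 to […] water with 0.2% wetting agent. Visual rating after about 3 weeks versus untreated controls, as % herbicidal action (100% = plants dead, 0% = like control).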

[3] = test system: PHBPU; test: Pre-emergence action against PHBPU; format: in vivo, Pharbitis purpurea; settings: Dosage 320 g/ha, pre-emergence
Outline: as §1

[4] = test system: CYPES; test: Pre-emergence action against CYPES; format: in vivo, Cyperus esculentus; settings: pre-emergence, dosage 320 g/ha, scored visually after 3 weeks vs untreated controls
Outline: as §1

[5] = test system: VIOTR; test: Pre-emergence action against VIOTR; format: in vivo, Viola tricolor; settings: Dosage 320 g/ha, pre-emergence
Outline: as §1

[6] = test system: MATIN; test: Pre-emergence action against MATIN; format: in vivo, Matricaria inodora; settings: Dosage 320 g/ha, pre-emergence
Outline: as §1

[7] = test system: ABUTH; test: Pre-emergence action against ABUTH; format: in vivo, Abutilon theophrasti; settings: pre-emergence, dosage 320 g/ha, scored visually after 3 weeks vs untreated controls
Outline: as §1

[8] = test system: POLCO; test: Pre-emergence action against POLCO; format: in vivo, Polygonum convolvulus; settings: Dosage 320 g/ha, pre-emergence
Outline: as §1

[9] = test system: PHBPU; test: Post-emergence action against PHBPU; format: in vivo, Pharbitis purpurea; settings: post-emergence, dosage 80 g/ha
Outline: as §2

[10] = test system: AMARE; test: Pre-emergence action against AMARE; format: in vivo, Amaranthus retroflexus; settings: pre-emergence, dosage 320 g/ha, scored visually after 3 weeks vs untreated controls
Outline: as §1

[11] = test system: POLCO; test: Post-emergence action against POLCO; format: in vivo, Polygonum convolvulus; settings: post-emergence, dosage 80 g/ha
Outline: as §2

[12] = test system: VERPE; test: Pre-emergence action against VERPE; format: in vivo, Veronica persica; settings: Dosage 320 g/ha, pre-emergence
Outline: as §1

[13] = test system: CYPES; test: Post-emergence action against CYPES; format: in vivo, Cyperus esculentus; settings: post-emergence, dosage 80 g/ha, visual assessment about 3 weeks after treatment vs untreated controls
Outline: as §2

[14] = test system: HORMU; test: Pre-emergence action against HORMU; format: in vivo, Hordeum murinum; settings: Dosage 320 g/ha
Outline: as §1

[15] = test system: MATIN; test: Post-emergence action against MATIN; format: in vivo, Matricaria inodora; settings: post-emergence, dosage 80 g/ha, visual assessment about 3 weeks after treatment vs untreated controls
Outline: as §2

[16] = test system: SETVI; test: Pre-emergence action against SETVI; format: in vivo, Setaria viridis; settings: pre-emergence, dosage 320 g/ha, scored visually after 3 weeks vs untreated controls
Outline: as §1

[17] = test system: VIOTR; test: Post-emergence action against VIOTR; format: in vivo, Viola tricolor; settings: post-emergence, dosage 80 g/ha
Outline: as §2

[18] = test system: ALOMY; test: Pre-emergence action against ALOMY; format: in vivo, Alopecurus myosuroides; settings: dosage 320 g/ha; pre-emergence; scored visually after 3 weeks vs untreated controls; 100% = plants have died, 0% = like control plants
Outline: as §1

[19] = test system: LOLRI; test: Pre-emergence action against LOLRI; format: in vivo, Lolium rigidum; settings: dosage 320 g/ha, scored visually after 3 weeks vs untreated controls
Outline: as §1

[20] = test system: STEME; test: Post-emergence action against STEME; format: in vivo, Stellaria media; settings: post-emergence, dosage 80 g/ha
Outline: as §2

[21] = test system: AMARE; test: Post-emergence action against AMARE; format: in vivo, Amaranthus retroflexus; settings: post-emergence, dosage 80 g/ha, visual assessment about 3 weeks after treatment vs untreated controls
Outline: as §2

[22] = test system: AVEFA; test: Post-emergence action against AVEFA; format: in vivo, Avena fatua; settings: post-emergence, dosage 80 g/ha, visual assessment about 3 weeks after treatment vs untreated controls
Outline: as §2

[23] = test system: LOLRI; test: Post-emergence action against LOLRI; format: in vivo, Lolium rigidum; settings: dosage 80 g/ha, visual assessment about 3 weeks after treatment vs untreated controls
Outline: as §2

[24] = test system: AVEFA; test: Pre-emergence action against AVEFA; format: in vivo, Avena fatua; settings: dosage 320 g/ha, scored visually after 3 weeks vs untreated controls
Outline: as §1

[25] = test system: ALOMY; test: Post-emergence action against ALOMY; format: in vivo, Alopecurus myosuroides; settings: Dosage 80 g/ha, post-emergence
Outline: as §2

[26] = test system: VERPE; test: Post-emergence action against VERPE; format: in vivo, Veronica persica; settings: dosage 80 g/ha
Outline: as §2

[27] = test system: HORMU; test: Post-emergence action against HORMU; format: in vivo, Hordeum murinum; settings: dosage 80 g/ha
Protocol: Seeds of monocotyledonous and dicotyledonous weed and crop plants are laid out in sandy loam soil in wood-fiber pots, covered with soil and cultivated in a greenhouse under good growth conditions. 2 to 3 weeks after sowing, the test plants are treated at the one-leaf stage. The compounds of the invention, formulated in the form of wettable powders (WP) or as emulsion concentrates (EC), are then sprayed onto the green parts of the plants in the form of an aqueous suspension or emulsion at a water application rate equating to […], with addition of 0.2% wetting agent. After the test plants have been left to stand in the greenhouse under optimal growth conditions for about 3 weeks, the action of the preparations is assessed visually in comparison to untreated controls (herbicidal action in percent (%): 100% activity=the plants have died, 0% activity=like control plants). […] At the same time, inventive compounds leave Gramineae crops such as barley, wheat, rye, millet/Sorghum, corn or rice virtually undamaged when applied post-emergence, even at high active ingredient dosages. In addition, some substances are also harmless to dicotyledonous crops such as soya, cotton, oilseed rape, sugar beet or potatoes. Some of the compounds according to the invention have high selectivity and are therefore suitable for controlling unwanted vegetation in agricultural crops by the post-emergence method. The data of Tables B18 to B34 below illustrate, in an exemplary manner, the […] herbicidal action of the compounds according to the invention, the herbicidal activity being stated in percent.

[28] = test system: ECHCG; test: Pre-emergence action against ECHCG; format: in vivo, Echinochloa crus-galli; settings: pre-emergence, dosage 320 g/ha, scored visually after 3 weeks vs untreated controls
Outline: as §1

[29] = test system: SETVI; test: Post-emergence action against SETVI; format: in vivo, Setaria viridis; settings: post-emergence, dosage 80 g/ha, visual assessment about 3 weeks after treatment vs untreated controls
Outline: as §2

[30] = test system: ECHCG; test: Post-emergence action against ECHCG; format: in vivo, Echinochloa crus-galli; settings: post-emergence, dosage 80 g/ha, visual assessment about 3 weeks after treatment vs untreated controls
Outline: as §2

| SMILES | Pre-emergence action against STEME [1] | Post-emergence action against ABUTH (herbicidal action in percent) [2] | Pre-emergence action against PHBPU [3] | Pre-emergence action against VIOTR [5] | Pre-emergence action against MATIN [6] | Pre-emergence action against ABUTH (herbicidal activity) [7] | Pre-emergence action against POLCO [8] | Post-emergence action against PHBPU [9] | Pre-emergence action against AMARE (herbicidal activity) [10] | Post-emergence action against POLCO [11] | Pre-emergence action against VERPE [12] | Post-emergence action against CYPES (herbicidal action in percent) [13] | Pre-emergence action against HORMU [14] | Post-emergence action against MATIN (herbicidal action in percent) [15] | SETVI (Table B8, pre-emergence herbicidal activity) [16] | Post-emergence action against VIOTR [17] | Pre-emergence action against ALOMY (herbicidal activity in percent) [18] | Pre-emergence action against LOLRI (herbicidal activity) [19] | Post-emergence action against STEME [20] | Post-emergence action against AMARE (herbicidal action in percent) [21] | further results |
| --- | --- | --- | --- | --- | --- | --- | --- | --- | --- | --- | --- | --- | --- | --- | --- | --- | --- | --- | --- | --- | --- |
| CCn1nnnc1NC(=O)c1ccc(C(F)(F)F)c(C(=O)C2CC2)c1SC [2-60] | 100% | 100% | 100% | 100% | 100% | 100% | 100% | 100 | 100% | 90 | 100% | 90% | 100% | 90% | 100% | 100 | 100% | 100% | 100 | 100% | Pre-emergence action against CYPES (herbicidal activity) [4]: 100%; Post-emergence action against AVEFA (herbicidal action in percent) [22]: 80%; Post-emergence action against LOLRI (herbicidal action in percent) [23]: 90%; Pre-emergence action against AVEFA (herbicidal activity) [24]: 100%; Post-emergence action against ALOMY [25]: 100%; Post-emergence action against VERPE [26]: 100; Post-emergence action against HORMU [27]: 100; Pre-emergence action against ECHCG (herbicidal activity) [28]: 100%; Post-emergence action against SETVI (herbicidal action in percent) [29]: 100%; Post-emergence action against ECHCG (herbicidal action in percent) [30]: 100% |
| CCn1nnnc1NC(=O)c1ccc(C(F)F)c(C(=O)C2CC2)c1SC [2-67] | 100% | 100% | 90% | 100% | 100% | 100% | 90% | 100 | 100% | 100 | 100% | 80% | 100% | 100% | 100% | 100 | 100% | 100% | 100 | 100% | Post-emergence action against AVEFA (herbicidal action in percent) [22]: 100%; Post-emergence action against LOLRI (herbicidal action in percent) [23]: 80%; Pre-emergence action against AVEFA (herbicidal activity) [24]: 100%; Post-emergence action against ALOMY [25]: 100%; Post-emergence action against VERPE [26]: 90; Post-emergence action against HORMU [27]: 80; Pre-emergence action against ECHCG (herbicidal activity) [28]: 100%; Post-emergence action against SETVI (herbicidal action in percent) [29]: 100%; Post-emergence action against ECHCG (herbicidal action in percent) [30]: 100% |
| CCCn1nnnc1NC(=O)c1ccc(C(F)F)c(C(=O)C2CC2)c1SC [3-67] | 90% | 100% | 100% | 100% | 100% | 100% | 90% | 100 | 100% | 80 | 100% | 80% | 100% | 100% | 100% | 100 | 100% | 100% | 100 | 100% | Pre-emergence action against CYPES (herbicidal activity) [4]: 100%; Post-emergence action against LOLRI (herbicidal action in percent) [23]: 80%; Pre-emergence action against AVEFA (herbicidal activity) [24]: 100%; Post-emergence action against VERPE [26]: 80; Post-emergence action against HORMU [27]: 80; Pre-emergence action against ECHCG (herbicidal activity) [28]: 100%; Post-emergence action against SETVI (herbicidal action in percent) [29]: 100%; Post-emergence action against ECHCG (herbicidal action in percent) [30]: 100% |
